The source made the active and inactive calls. No cut-off for these calls is given here.
Columns and labels:
[1] = system: TSEC; experiment: Antiinflammatory activity against LPS induced mouse TSEC cells assessed as inhibition of CXCL1 expression at 0.3 to 5 uM preincubated for 1 hr followed by LPS stimulation and measured after 4 hrs by qPCR analysis; type: functional, cell-based; details: dose 0.3-5 µM, time 5.0 hrs
[2] = Half life in male C57BL6 mouse liver at 10 mg/kg, ip measured up to 24 hrs by LC-MS/MS analysis; type: ADME, organism-based; details: for half-life: male, C57BL6, mouse, liver
[3] = Cytotoxicity against mouse TSEC cells at up to 200 uM measured after 4 hrs by XTT assay; type: toxicity, cell-based
[4] = target: T1, Bromodomain-containing protein 4 (Homo sapiens, UniProt O60885); experiment: Inhibition of N-luc fused BRD4-BD1 in HEK293T cells using NanoGlo substrate as substrate incubated for 2 hrs by NanoBRET assay; type: cell-based
[5] = AUC in male C57BL6 mouse liver at 10 mg/kg, ip measured up to 24 hrs by LC-MS/MS analysis; type: ADME, organism-based; details: in vivo
[6] = Metabolic stability in mouse liver microsomes assessed as half life […] measured after 60 mins in presence of NADPH by LC-MS/MS analysis; type: ADME, Microsome
[7] = system: Mus musculus; experiment: Antiinflammatory activity against APAP-induced C57BL/6J mouse liver injury model assessed as reduction in Cxcl2 expression at 30 mg/kg, po preincubated for 1 hr followed by APAP stimulation and measured after 8 hrs by qPCR analysis; type: functional, organism-based; details: time 9.0 hrs
[8] = target: T1, Bromodomain-containing protein 4; experiment: Binding affinity to N-luc fused BRD4-BD1 in HEK293T cells assessed as apparent inhibition constant using NanoGlo substrate as substrate incubated for 2 hrs by NanoBRET assay; type: cell-based; details: read-out: Ki(app)
[9] = Apparent oral clearance in male C57BL6 mouse plasma at 10 mg/kg, ip measured up to 24 hrs by LC-MS/MS analysis; type: ADME, organism-based
[10] = Cmax in male C57BL6 mouse plasma at 10 mg/kg, ip measured up to 24 hrs by LC-MS/MS analysis; type: ADME, organism-based
[11] = system: Mus musculus; experiment: Antiinflammatory activity against APAP-induced C57BL/6J mouse liver injury model assessed as reduction in Cxcl1 expression at 30 mg/kg, po preincubated for 1 hr followed by APAP stimulation and measured after 8 hrs by qPCR analysis; type: functional, organism-based; details: time 9.0 hrs
[12] = system: Mus musculus; experiment: Antiinflammatory activity against APAP-induced C57BL/6J mouse liver injury model assessed as reduction in Ly6G expression at 30 mg/kg, po preincubated for 1 hr followed by APAP stimulation and measured after 8 hrs by qPCR analysis; type: functional, organism-based; details: time 9.0 hrs
[13] = target: T1, Bromodomain-containing protein 4; experiment: Induction of stabilization of BRD4-BD1 in human HEK293T cells at 0.5 to 5 uM incubated for 2 hrs by CESTA analysis; type: cell-based; details: dose 0.5-5 µM
[14] = AUC in male C57BL6 mouse plasma at 10 mg/kg, ip measured up to 24 hrs by LC-MS/MS analysis; type: ADME, organism-based; details: for AUC at 24 h: male, C57BL6, mouse, plasma
[15] = target: Bromodomain-containing protein 2 (Homo sapiens, UniProt P25440); experiment: Inhibition of his9-tagged BRD2-BD2 (unknown origin) preincubated for 30 mins followed by addition of biotinylated peptide and measured after 30 mins by Alphascreen assay
[16] = system: Mus musculus; experiment: Antiinflammatory activity against APAP-induced C57BL/6J mouse liver injury model assessed as reduction in necrosis at 30 mg/kg, po preincubated for 1 hr followed by APAP stimulation and measured after 12 hrs by H and E staining based analysis; type: functional, organism-based
[17] = target: T1, Bromodomain-containing protein 4; experiment: Inhibition of N-luc fused BRD4-BD1 in HEK293T cells using NanoGlo substrate as substrate at 10 uM incubated for 2 hrs by NanoBRET assay relative to control; type: cell-based
[18] = system: Mus musculus; experiment: Antiinflammatory activity against LPS-induced C57BL/6J mouse model assessed as reduction in Ccl2 expression at 30 mg/kg, po preincubated for 1 hr followed by LPS stimulation and measured after 8 hrs by qPCR analysis; type: functional, organism-based; details: time 9.0 hrs
[19] = system: Mus musculus; experiment: Antiinflammatory activity against LPS-induced C57BL/6J mouse model assessed as reduction in Cxcl1 expression at 30 mg/kg, po preincubated for 1 hr followed by LPS stimulation and measured after 8 hrs by qPCR analysis; type: functional, organism-based; details: time 9.0 hrs
[20] = Toxicity in mouse Megakaryocyte cells assessed as reduction in thrombocytopenia risk by CFU-MK Assay; type: cell-based
[21] = target: T1, Bromodomain-containing protein 4; experiment: Inhibition of human his tagged BRD4-BD2 using Histone H4 peptide (1-21) K5/8/12/16Ac as substrate preincubated for 30 mins followed by addition of biotinylated peptide and measured after 30 mins by Alphascreen assay
[22] = system: Mus musculus; experiment: Antiinflammatory activity against APAP-induced C57BL/6J mouse liver injury model assessed as reduction in Ccl2 expression at 30 mg/kg, po preincubated for 1 hr followed by APAP stimulation and measured after 8 hrs by qPCR analysis; type: functional, organism-based; details: time 9.0 hrs
[23] = target: T1, Bromodomain-containing protein 4; experiment: Inhibition of his9-tagged BRD4-BD1 (unknown origin) preincubated for 30 mins followed by addition of biotinylated peptide and measured after 30 mins by Alphascreen assay
[24] = system: Mus musculus; experiment: Antiinflammatory activity against LPS-induced C57BL/6J mouse model assessed as reduction in Cxcl2 expression at 30 mg/kg, po preincubated for 1 hr followed by LPS stimulation and measured after 8 hrs by qPCR analysis; type: functional, organism-based; details: time 9.0 hrs
[25] = system: TSEC; experiment: Antiinflammatory activity against LPS induced mouse TSEC cells assessed as inhibition of CCL2 expression at 0.3 to 5 uM preincubated for 1 hr followed by LPS stimulation and measured after 4 hrs by qPCR analysis; type: functional, cell-based; details: dose 0.3-5 µM, time 5.0 hrs
[26] = Cmax in male C57BL6 mouse liver at 10 mg/kg, ip measured up to 24 hrs by LC-MS/MS analysis; type: ADME, organism-based; details: in vivo
[27] = Cytotoxicity against mouse TSEC cells at 10 uM measured after 4 hrs by XTT assay; type: toxicity, cell-based
[28] = system: Mus musculus; experiment: Antiinflammatory activity against LPS-induced C57BL/6J mouse model assessed as reduction in goblet cell in small intestine at 30 mg/kg, po preincubated for 1 hr followed by LPS stimulation and measured after 8 days by alcian blue staining based analysis; type: functional, organism-based; details: time 9.0 hrs
[29] = male, C57BL6, mouse, plasma, read-out: CL/F (converted)
[30] = mouse, megakaryocyte cells (CFU-MK colony formation)
[31] = mouse, in vivo, ip, 10 mg/kg, 24 h

Bromodomain-containing protein 2, sequence (P25440 whole entry): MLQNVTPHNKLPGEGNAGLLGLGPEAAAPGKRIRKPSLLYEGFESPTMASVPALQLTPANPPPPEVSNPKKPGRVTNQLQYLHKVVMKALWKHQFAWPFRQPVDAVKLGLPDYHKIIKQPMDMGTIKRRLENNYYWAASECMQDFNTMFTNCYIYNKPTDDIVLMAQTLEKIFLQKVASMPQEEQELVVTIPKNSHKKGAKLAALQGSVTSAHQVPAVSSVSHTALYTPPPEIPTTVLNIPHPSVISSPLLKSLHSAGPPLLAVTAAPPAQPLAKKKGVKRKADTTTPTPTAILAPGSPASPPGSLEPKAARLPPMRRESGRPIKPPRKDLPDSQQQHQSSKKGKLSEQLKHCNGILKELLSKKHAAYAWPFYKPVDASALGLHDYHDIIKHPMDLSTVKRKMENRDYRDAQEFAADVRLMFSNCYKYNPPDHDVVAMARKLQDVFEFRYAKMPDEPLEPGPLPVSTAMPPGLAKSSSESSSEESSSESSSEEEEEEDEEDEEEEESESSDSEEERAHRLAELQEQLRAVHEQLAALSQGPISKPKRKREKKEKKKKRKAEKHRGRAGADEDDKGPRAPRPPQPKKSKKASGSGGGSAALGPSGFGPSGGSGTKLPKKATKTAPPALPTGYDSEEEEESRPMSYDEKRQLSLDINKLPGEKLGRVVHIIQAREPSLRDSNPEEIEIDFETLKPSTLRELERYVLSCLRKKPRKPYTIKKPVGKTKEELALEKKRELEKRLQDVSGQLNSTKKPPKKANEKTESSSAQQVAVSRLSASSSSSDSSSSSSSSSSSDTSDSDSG

SMILES | AUC [5] [nmol·h/g] | Cmax [10] [nM] | Activity [13] | IC50 [15] [nM] | Cmax [26] [nmol/g] | Activity [1] | Activity [3] | Activity [7] | Activity [11] | Activity [12] | Activity [16] | Activity [18] | Activity [19] | EC50 ([20]; megakaryocyte) [nM] | Activity [22] | Activity [24] | Activity [25] | Activity [28] | further results
CCS(=O)(=O)Nc1ccc(Oc2ccc(F)cc2F)c(-c2cn(C)c(=O)c3[nH]ccc23)c1 [MIVEBRESIB] |  |  |  |  |  |  |  |  |  |  |  |  |  |  |  |  |  |  | EC50 [20, 30]: 645 nM
O=C(Nc1ccc(C(F)(F)F)cc1)Nc1ccc(S(=O)(=O)N2CCC[C@H]2CN2CCOCC2)cc1 |  |  |  | > 50000 |  |  |  |  |  |  |  |  |  |  |  |  |  |  | 
Cc1ccc(C(C)C)cc1Oc1nccc(-c2c(-c3ccc(C(F)(F)F)cc3)ncn2C2CCNCC2)n1 | 1402 | 1800 |  |  | 137 | Active |  | Active | Active | Active | Active | Active | Active | 670 | Active | Active | Active | Active | t1/2 [2, 31]: 6.8 h; half-life [6]: 3.45 h; CL/F [9, 31]: 418 mL/min/kg; AUC [14, 31]: 40.2 µM·h; Activity [27]: Toxic
CCNC(=O)c1cc2c(-c3cc(C(C)(C)O)ccc3Oc3c(C)cc(F)cc3C)cn(C)c(=O)c2[nH]1 [ABBV-744] |  |  |  |  |  |  |  |  |  |  |  |  |  |  |  |  |  |  | EC50 [20, 30]: 3 nM
Cc1cc(C)cc(Oc2cccc(-c3c(C)nnn3C3CCN(CCN(C)C)CC3)n2)c1 | 2.65 | 430 | inactive |  | 3.69 | Active | Non-toxic | Active | Active | Active | Active | Active; Compound Showed No Significant Reduction Compared To I-Bet151 And Compound 3(Dw34) | Active; Compound Showed No Significant Reduction Compared To I-Bet151 And Compound 3(Dw34) | 90 | Active | Active; Compound Showed No Significant Reduction Compared To I-Bet151 And Compound 3(Dw34) | Active | Active | half-life [2]: 2.3 h; CL/F [9, 29]: 470 mL/min/kg; AUC at 24 h [14]: 0.64 µM·h

Further lines, with some results ahead:

AUC [5] [nmol·h/g] | Cmax [10] [nM] | Activity [13] | IC50 [15] [nM] | Cmax [26] [nmol/g] | SMILES | Activity [1] | Activity [3] | Activity [7] | Activity [11] | Activity [12] | Activity [16] | Activity [18] | Activity [19] | EC50 ([20]; megakaryocyte) [nM] | Activity [22] | Activity [24] | Activity [25] | Activity [28] | further results
138 | 1050 | inactive | > 10000 | 38.9 | Cc1ccc(C(C)C)cc1Oc1nccc(-c2c(-c3ccc(C(F)(F)F)cc3)ncn2C2CCN(CCO)CC2)n1 | Active | Non-toxic | inactive | Active | inactive | Active | Active; Compound Showed No Significant Reduction Compared To I-Bet151 And Compound 3(Dw34) | Active; Compound Showed No Significant Reduction Compared To I-Bet151 And Compound 3(Dw34) | 1830 | Active | Active; Compound Showed No Significant Reduction Compared To I-Bet151 And Compound 3(Dw34) | Active |  | half-life [2]: 3.4 h; EC50 [4]: 2450 nM; half-life [6]: 1.29 h; Ki [8]: 936 nM; CL/F [9, 29]: 65 mL/min/kg; AUC at 24 h [14]: 4.04 µM·h; inhibition [17]: 36%; IC50 [21]: > 10000 nM; IC50 [23]: 111 nM
 |  |  | 49 |  | CC(=O)Nc1c(F)cc(C(=O)N[C@H]2CC[C@H](O)CC2)cc1O[C@@H](C)c1ccccc1 [GSK046] |  | Non-toxic | inactive |  |  | Active |  |  | 380 | inactive |  | Active; Compound Is Less Effective Than I-Bet151 And Compound 3 |  | 
 |  | Active |  |  | COc1cc2c(cc1-c1c(C)noc1C)ncc1[nH]c(=O)n([C@H](C)c3ccccn3)c12 |  | Non-toxic | Active | Active | Active | inactive | Active | Active | 1280 | inactive | Active |  | Active | 
